Measurements taken from ChEMBL document CHEMBL1201862, “PubChem BioAssay data set” (2004).
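In this assay, cells in 96-well plates receive the compound at five concentrations for 48 hours. Endpoints are linearly interpolated between the surrounding concentrations. Abbreviation: GI50, concentration required for 50% inhibition of growth.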 Activity calls are given as the source filed them. Rule as the data show it: active = GI50 up to about 1.1 µM and inactive = higher.

Legend:
Assay in all cases: NCI tumour cell line growth inhibition, 48 h
U-251 = system: U-251
Malme-3M = system: Malme-3M
CCRF-CEM = system: CCRF-CEM
HCC 2998 = system: HCC 2998
SK-OV-3 = system: SK-OV-3
NCI-H23 = system: NCI-H23
HT-29 = system: HT-29
SNB-19 = system: SNB-19
SN12C = system: SN12C
HOP-62 = system: HOP-62
SF-268 = system: SF-268
OVCAR-8 = system: OVCAR-8
DU-145 = system: DU-145
NCI-H522 = system: NCI-H522
UACC-62 = system: UACC-62
SNB-75 = system: SNB-75
HL-60 = system: HL-60
MOLT-4 = system: MOLT-4
PC-3 = system: PC-3
CAKI-1 = system: CAKI-1

Measured: GI50

c1ccc(-c2nnc(-c3ccccn3)c3c2C[C@@H]2C[C@@H]4Cc5c(-c6ccccn6)nnc(-c6ccccn6)c5[C@@H]4[C@H]32)nc1
inactive: U-251 22.2 µM | Malme-3M 75.7 µM | CCRF-CEM 30.3 µM | HCC 2998 39.9 µM | SK-OV-3 > 100 µM | NCI-H23 > 100 µM | HT-29 44.9 µM | SNB-19 80.7 µM | SN12C 48.8 µM | HOP-62 41.2 µM | SF-268 35 µM | OVCAR-8 36.8 µM | DU-145 38.8 µM | NCI-H522 96.6 µM | UACC-62 41.7 µM | SNB-75 76.6 µM | HL-60 24.7 µM | MOLT-4 33.2 µM | PC-3 41.5 µM | CAKI-1 58.7 µM

CN1Cc2cc(O)c(O)cc2C(O)C1 (centres undefined)
inactive: U-251 > 100 µM | Malme-3M > 100 µM | CCRF-CEM 34.8 µM | HCC 2998 > 100 µM | SK-OV-3 > 100 µM | NCI-H23 > 100 µM | HT-29 > 100 µM | SNB-19 > 100 µM | SN12C > 100 µM | HOP-62 > 100 µM | SF-268 > 100 µM | OVCAR-8 > 100 µM | DU-145 > 100 µM | NCI-H522 49.3 µM | UACC-62 > 100 µM | SNB-75 > 100 µM | HL-60 38.3 µM | MOLT-4 > 100 µM | PC-3 > 100 µM | CAKI-1 > 100 µM

OC(c1nc2ccccc2s1)(C(F)(F)F)C(F)(F)F
inactive: U-251 > 100 µM | Malme-3M > 100 µM | CCRF-CEM > 100 µM | HCC 2998 > 100 µM | SK-OV-3 > 100 µM | NCI-H23 > 100 µM | HT-29 > 100 µM | SNB-19 > 100 µM | SN12C > 100 µM | HOP-62 > 100 µM | SF-268 > 100 µM | OVCAR-8 > 100 µM | DU-145 > 100 µM | NCI-H522 > 100 µM | UACC-62 > 100 µM | SNB-75 > 100 µM | HL-60 > 100 µM | MOLT-4 > 100 µM | PC-3 > 100 µM | CAKI-1 > 100 µM

O=C1C(Cl)C(c2cc3cc(Br)ccc3nc2Cl)N1c1c(Cl)cccc1Cl (centres undefined)
inactive: Malme-3M > 25 µM | CCRF-CEM 7.53 µM | HCC 2998 23.8 µM | SK-OV-3 > 25 µM | NCI-H23 20.4 µM | HT-29 > 25 µM | SNB-19 > 25 µM | SN12C 16.6 µM | HOP-62 > 25 µM | SF-268 11.7 µM | OVCAR-8 10.8 µM | DU-145 > 25 µM | NCI-H522 5.37 µM | UACC-62 17.4 µM | SNB-75 > 25 µM | HL-60 8.24 µM | MOLT-4 4.9 µM | PC-3 20 µM | CAKI-1 8.65 µM

CCCCCCCCCCCC(=O)OC[C@H](C[As](=O)(O)O)OC(=O)CCCCCCCCCCC
inactive: U-251 2.36 µM | Malme-3M 2.3 µM | CCRF-CEM 13.7 µM | HCC 2998 8.13 µM | SK-OV-3 14.7 µM | NCI-H23 5.98 µM | HT-29 8.02 µM | SNB-19 5.93 µM | SN12C 3.73 µM | HOP-62 14.8 µM | SF-268 8.13 µM | OVCAR-8 13 µM | DU-145 17.3 µM | NCI-H522 2.25 µM | UACC-62 2.3 µM | SNB-75 7.4 µM | HL-60 3.05 µM | MOLT-4 6.14 µM | PC-3 2.9 µM | CAKI-1 8.55 µM

COc1ccc([C@H]2CC(=O)C[C@H](c3ccc(OC)cc3OC)C23C(=O)c2ccccc2C3=O)c(OC)c1
inactive: U-251 > 100 µM | Malme-3M > 100 µM | CCRF-CEM > 100 µM | HCC 2998 > 100 µM | SK-OV-3 > 100 µM | NCI-H23 > 100 µM | HT-29 > 100 µM | SNB-19 > 100 µM | SN12C > 100 µM | HOP-62 > 100 µM | SF-268 > 100 µM | OVCAR-8 99.5 µM | DU-145 > 100 µM | NCI-H522 > 100 µM | UACC-62 > 100 µM | SNB-75 26.9 µM | HL-60 > 100 µM | MOLT-4 > 100 µM | PC-3 > 100 µM | CAKI-1 > 100 µM

CNC(=O)OCc1nc(SC)n(C)c1COC(=O)NC
inactive: U-251 166 µM | Malme-3M 113 µM | CCRF-CEM 44.8 µM | HCC 2998 122 µM | SK-OV-3 63 µM | NCI-H23 130 µM | HT-29 205 µM | SNB-19 233 µM | SN12C 103 µM | HOP-62 38.5 µM | SF-268 119 µM | OVCAR-8 182 µM | DU-145 > 81.3 µM | NCI-H522 74.1 µM | UACC-62 60.1 µM | SNB-75 167 µM | HL-60 55.2 µM | MOLT-4 26.4 µM | PC-3 171 µM | CAKI-1 87.7 µM
